Data on 15 compounds can be found in patent US12226414B2, “1-isopropyl-3-methyl-8-(pyridin-3-yl)-1,3-dihydro-2H-imidazo[4,5-c] cinnolin-2-one as selective modulators of ataxia telangiectasia mutated (ATM) kinase and uses thereof” (SUZHOU ZANRONG PHARMA LIMITED, priority 2018, dated 2025).

The target in test [1] is PIK3Cβ (p110β) (Homo sapiens (Human), UniProt P42338). The test can be described thus: PI3K biochemical potency assay (PI3Kβ). As to the method:
(§1) PI3Kα (p110α/p85a), PIK3C δ, PIK3Cβ (p110β), PIK3Cγ (pp110γ) kinase reaction solutions of PI3Kα (Invitrogen, Cat. No. PV4788), PIK3Cδ (Invitrogen, Cat. No. PV6452), PIK3Cβ (Millipore, Cat. No. 14-603-K), PIK3Cγ (Invitrogen, Cat. No. PR8641C) enzymes were prepared in 1× kinase buffer at 4-fold of the final concentration (final concentration: PI3Kα 0.7 nM, PIK3Cδ 3 nM, PIK3Cβ 4.8 nM, PIK3Cγ 11 nM) of each reagent in the assay. 2.5 μl of kinase solution was added to each well of the 384-well assay plate, which contains 2.5 μl of compounds with serially diluted concentration. 2× substrate solution was prepared with PIP2 substrate and ATP in 1× kinase reaction buffer at 2-fold of the final concentration of each reagent in the assay. 5 μl of substrate solution was added to each well of the assay plate to start reaction. The assay plate was incubated at room temperature for 1 hour. 5 μl reaction mix was transferred to a new 384 well plate. 5 μl of ADP-Glo reagent (Promega, Cat. No. v9102/3, Lot. No. 0000176563) was added to each well of the new assay plate to stop the reaction. The plate was shaken slowly and equilibrated for 40 minutes. 10 μl kinase detection reagents was added to each well, which was equilibrated for 60 minutes before read on a plate reader (Envision) for luminescence.

Test [2] addresses ATR (Homo sapiens (Human), UniProt Q13535). Description: ATR biochemical potency assay. The procedure:
ATR enzyme was made by ChemPartner (batch: CP-ATR-20161102-M2). 2× enzyme solutions were prepared in 1× kinase base buffer. 10 μl of 2× enzyme solution (final concentration: 2.5 nM) was added to each well of the 384-well assay plate containing 60 nl compound in each well. The plate was incubated at room temperature for 10 minutes. 2× peptide solutions were prepared with FAM-labeled peptide and ATP in the 1× kinase base buffer. 10 μl of 2× peptide solution was added to each well of the 384-well assay plate, which was incubated at 28° C. for 240 min. 40 μl of stop buffer was added to stop reaction. Data were collected by Caliper.

The target of test [3] is PIK3Cδ (Homo sapiens (Human), UniProt O00329). Description: PI3K biochemical potency assay (PI3Kδ). The procedure:
as §1

The target in test [4] is ATM in SN38 treated HT-29 cells (Homo sapiens (Human), UniProt Q13315). Description: ATM SN-38 HT-29 cellular potency assay.
Protocol: Inhibition of ATM was evaluated in SN38 treated HT-29 cells (ATCC, Cat #HTB-38) by high-Content Imaging System
HT-29 cells were trypsinized and approximately 10,000 cells were seeded per well to 96-well microplates which were incubated overnight at 37° C. and 5% CO2. Test compounds were added to the 96-well plates which were incubated at 37° C. and 5% CO2 for 1 hour. […] After the plates were rinsed 3 times with PBSA, 50 μl permeabilization buffer (0.1% Triton-X 100 in PBSA) was added and the plates were incubated for 20 minutes at room temperature. After the plates were rinsed once with PBSA, 50 μl primary antibody solution was added and the plates were incubated in at 4° C. overnight. […] The plates were rinsed with PBST 3 times and then 100 μl PBSA were added per well. The plates were sealed with black plate seals.
Test [5] addresses mTOR (Homo sapiens (Human), UniProt P42345). The test can be described thus: mTOR biochemical potency assay. As to the method:
Solution of mTOR enzymes (Millipore, Cat. No. 14-770, Lot. No. 2052551) was prepared in 1× kinase buffer at 4-fold of the final concentration (final concentration: 6 nM) in the assay. 2.5 μl of kinase solution was added to each well of the 384-well assay plate, which contains 2.5 μl of compounds with serially diluted concentration. 2× substrate solution was prepared with ULight-4E-BP1 (Thr37/46) Peptide (PE, Cat. No. TRF0128-M, Lot. No. 1695274) and ATP in 1× kinase reaction buffer at 2-fold of the final concentration of each reagent in the assay. 5 μl of substrate solution was added to each well of the assay plate to start reaction. The assay plate was incubated at room temperature for 30 minutes. Detection solution of kinase quench buffer (EDTA) and Eu-anti-phospho-4E-BP1 antibody (Thr37/46) (PE, Cat. No. TRF0216-M, Lot. No. 1571838) were prepared at 2-fold the desired final concentrations of each reagent in Lance detection buffer. 10 μl of detection solution buffer was added to each well of the assay plate. The assay plate was equilibrated for 60 minutes at room temperature before read on a plate reader (Lance signal (665 nm) from Envision program).

Test [6] has as its target PIK3Cγ (pp110γ) (Homo sapiens (Human), UniProt P48736). Description: PI3K biochemical potency assay (PI3Kγ). The procedure: as §1
The target of test [7] is ATM (Homo sapiens (Human), UniProt Q13315). The test can be described thus: ATM biochemical potency assay. The procedure: The plate was incubated at room temperature for 10 minutes. […] Data was collected by Caliper.
For test [8], the target named is PI3Kα (p110α/p85a) (Homo sapiens (Human), UniProt P42336). Description: PI3K biochemical potency assay (PI3Kα). As to the method: as §1

Some results are limits rather than exact numbers.

Sequence of PIK3Cβ (p110β) (P42338 whole entry, looked up): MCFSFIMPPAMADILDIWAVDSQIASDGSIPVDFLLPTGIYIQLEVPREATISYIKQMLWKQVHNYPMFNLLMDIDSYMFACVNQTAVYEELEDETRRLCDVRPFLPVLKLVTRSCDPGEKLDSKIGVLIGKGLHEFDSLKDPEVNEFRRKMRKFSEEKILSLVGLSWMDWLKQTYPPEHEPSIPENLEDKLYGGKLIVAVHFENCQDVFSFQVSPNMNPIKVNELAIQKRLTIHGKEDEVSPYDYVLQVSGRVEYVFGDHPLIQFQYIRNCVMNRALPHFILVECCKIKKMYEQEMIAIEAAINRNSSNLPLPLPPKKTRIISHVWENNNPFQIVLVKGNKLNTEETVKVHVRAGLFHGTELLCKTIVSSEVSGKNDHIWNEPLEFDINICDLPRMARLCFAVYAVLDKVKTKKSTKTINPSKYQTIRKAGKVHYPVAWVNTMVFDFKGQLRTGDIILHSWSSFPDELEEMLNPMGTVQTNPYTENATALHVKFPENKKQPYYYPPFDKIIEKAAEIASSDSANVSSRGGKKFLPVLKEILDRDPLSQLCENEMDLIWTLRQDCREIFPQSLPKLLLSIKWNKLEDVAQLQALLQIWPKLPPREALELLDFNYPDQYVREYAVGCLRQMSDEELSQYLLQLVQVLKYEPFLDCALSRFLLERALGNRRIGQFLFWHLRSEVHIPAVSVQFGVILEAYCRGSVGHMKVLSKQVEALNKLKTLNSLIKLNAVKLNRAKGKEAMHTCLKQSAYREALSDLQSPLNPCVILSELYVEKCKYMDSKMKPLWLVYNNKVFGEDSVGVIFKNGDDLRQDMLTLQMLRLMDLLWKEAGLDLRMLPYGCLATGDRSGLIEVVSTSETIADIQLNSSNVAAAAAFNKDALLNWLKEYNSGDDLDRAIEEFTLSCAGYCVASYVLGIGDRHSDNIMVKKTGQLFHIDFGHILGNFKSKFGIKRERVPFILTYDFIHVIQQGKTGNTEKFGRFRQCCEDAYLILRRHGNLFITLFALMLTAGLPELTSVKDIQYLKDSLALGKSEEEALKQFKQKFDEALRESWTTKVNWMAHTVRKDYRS
Sequence of PIK3Cβ (p110β) (P27986 whole entry partner, looked up): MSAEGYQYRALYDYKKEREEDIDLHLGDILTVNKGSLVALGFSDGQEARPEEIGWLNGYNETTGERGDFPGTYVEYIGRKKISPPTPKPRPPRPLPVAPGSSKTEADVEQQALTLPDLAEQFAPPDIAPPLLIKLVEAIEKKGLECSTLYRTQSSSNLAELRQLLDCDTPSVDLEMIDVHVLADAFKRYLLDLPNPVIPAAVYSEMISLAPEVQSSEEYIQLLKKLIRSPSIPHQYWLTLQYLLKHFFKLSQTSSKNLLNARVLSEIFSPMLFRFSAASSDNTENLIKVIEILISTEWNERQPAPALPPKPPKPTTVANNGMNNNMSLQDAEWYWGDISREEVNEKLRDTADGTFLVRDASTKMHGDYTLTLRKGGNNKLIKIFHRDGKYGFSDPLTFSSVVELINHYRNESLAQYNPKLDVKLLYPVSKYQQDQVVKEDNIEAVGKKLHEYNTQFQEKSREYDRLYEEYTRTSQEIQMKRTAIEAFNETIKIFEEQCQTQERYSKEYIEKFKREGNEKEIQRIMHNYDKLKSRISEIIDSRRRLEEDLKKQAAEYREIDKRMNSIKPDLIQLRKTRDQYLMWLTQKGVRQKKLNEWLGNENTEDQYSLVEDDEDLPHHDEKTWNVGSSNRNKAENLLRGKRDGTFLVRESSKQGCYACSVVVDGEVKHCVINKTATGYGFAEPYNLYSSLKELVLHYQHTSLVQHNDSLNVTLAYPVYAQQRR
Sequence of PIK3Cγ (pp110γ) (P48736 whole entry): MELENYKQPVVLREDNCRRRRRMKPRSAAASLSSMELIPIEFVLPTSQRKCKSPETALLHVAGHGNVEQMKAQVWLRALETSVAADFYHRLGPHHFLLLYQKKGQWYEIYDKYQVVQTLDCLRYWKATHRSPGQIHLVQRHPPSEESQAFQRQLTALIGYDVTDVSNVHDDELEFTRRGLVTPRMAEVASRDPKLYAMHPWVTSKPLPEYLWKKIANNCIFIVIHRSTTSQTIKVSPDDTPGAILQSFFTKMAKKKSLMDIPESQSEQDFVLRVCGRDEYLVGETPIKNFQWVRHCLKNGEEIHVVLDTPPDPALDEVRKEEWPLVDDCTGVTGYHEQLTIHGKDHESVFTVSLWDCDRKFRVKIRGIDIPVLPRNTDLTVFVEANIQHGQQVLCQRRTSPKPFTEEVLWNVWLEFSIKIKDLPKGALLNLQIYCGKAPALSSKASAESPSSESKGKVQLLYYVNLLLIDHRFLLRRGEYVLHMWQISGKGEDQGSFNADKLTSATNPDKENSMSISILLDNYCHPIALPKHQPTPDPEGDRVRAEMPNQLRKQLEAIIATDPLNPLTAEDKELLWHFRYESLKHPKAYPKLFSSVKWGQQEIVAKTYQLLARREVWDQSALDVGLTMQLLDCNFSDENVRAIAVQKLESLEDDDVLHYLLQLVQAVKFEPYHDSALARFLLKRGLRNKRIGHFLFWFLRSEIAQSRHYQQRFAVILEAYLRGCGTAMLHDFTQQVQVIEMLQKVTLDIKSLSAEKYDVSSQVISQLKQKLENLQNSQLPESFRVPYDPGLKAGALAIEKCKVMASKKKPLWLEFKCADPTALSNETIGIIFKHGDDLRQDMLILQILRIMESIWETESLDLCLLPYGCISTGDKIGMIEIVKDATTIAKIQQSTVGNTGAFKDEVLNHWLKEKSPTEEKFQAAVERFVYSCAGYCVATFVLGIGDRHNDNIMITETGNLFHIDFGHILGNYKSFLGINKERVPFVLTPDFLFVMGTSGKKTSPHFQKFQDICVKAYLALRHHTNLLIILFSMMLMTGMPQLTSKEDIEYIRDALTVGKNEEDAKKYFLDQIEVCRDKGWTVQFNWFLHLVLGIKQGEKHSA
Sequence of PIK3Cδ (O00329 whole entry, looked up): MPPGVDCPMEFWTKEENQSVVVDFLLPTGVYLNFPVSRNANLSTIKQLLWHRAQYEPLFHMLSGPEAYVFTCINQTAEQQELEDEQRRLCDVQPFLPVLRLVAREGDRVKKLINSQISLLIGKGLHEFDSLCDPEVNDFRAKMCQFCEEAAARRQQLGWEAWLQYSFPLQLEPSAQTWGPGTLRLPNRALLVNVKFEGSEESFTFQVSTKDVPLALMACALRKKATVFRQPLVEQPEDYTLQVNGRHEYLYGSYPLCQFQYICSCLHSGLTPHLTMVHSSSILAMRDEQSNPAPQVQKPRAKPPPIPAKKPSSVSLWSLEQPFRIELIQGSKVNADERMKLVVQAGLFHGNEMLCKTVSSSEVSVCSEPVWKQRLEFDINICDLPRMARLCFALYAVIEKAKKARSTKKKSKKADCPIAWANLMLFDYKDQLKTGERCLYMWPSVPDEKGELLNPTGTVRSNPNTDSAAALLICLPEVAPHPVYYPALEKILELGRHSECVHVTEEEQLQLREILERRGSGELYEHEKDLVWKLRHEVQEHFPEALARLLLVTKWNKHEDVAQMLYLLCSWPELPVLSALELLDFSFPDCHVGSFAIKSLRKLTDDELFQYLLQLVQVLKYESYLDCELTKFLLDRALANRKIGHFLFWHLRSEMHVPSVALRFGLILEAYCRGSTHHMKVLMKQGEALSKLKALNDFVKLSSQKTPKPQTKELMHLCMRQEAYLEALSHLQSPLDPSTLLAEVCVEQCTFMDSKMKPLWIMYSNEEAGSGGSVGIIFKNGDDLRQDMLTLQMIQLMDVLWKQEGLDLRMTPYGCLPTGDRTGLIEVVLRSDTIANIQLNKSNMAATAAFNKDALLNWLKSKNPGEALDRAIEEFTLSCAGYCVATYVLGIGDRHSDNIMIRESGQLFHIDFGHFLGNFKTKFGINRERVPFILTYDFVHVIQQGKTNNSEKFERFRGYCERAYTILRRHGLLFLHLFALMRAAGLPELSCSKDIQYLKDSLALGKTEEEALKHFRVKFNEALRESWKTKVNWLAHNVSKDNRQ
Sequence of PIK3Cδ (P27986 whole entry partner, looked up): as the sequence (P27986 whole entry partner, looked up) above
Sequence of PI3Kα (p110α/p85a) (P42336 whole entry, looked up): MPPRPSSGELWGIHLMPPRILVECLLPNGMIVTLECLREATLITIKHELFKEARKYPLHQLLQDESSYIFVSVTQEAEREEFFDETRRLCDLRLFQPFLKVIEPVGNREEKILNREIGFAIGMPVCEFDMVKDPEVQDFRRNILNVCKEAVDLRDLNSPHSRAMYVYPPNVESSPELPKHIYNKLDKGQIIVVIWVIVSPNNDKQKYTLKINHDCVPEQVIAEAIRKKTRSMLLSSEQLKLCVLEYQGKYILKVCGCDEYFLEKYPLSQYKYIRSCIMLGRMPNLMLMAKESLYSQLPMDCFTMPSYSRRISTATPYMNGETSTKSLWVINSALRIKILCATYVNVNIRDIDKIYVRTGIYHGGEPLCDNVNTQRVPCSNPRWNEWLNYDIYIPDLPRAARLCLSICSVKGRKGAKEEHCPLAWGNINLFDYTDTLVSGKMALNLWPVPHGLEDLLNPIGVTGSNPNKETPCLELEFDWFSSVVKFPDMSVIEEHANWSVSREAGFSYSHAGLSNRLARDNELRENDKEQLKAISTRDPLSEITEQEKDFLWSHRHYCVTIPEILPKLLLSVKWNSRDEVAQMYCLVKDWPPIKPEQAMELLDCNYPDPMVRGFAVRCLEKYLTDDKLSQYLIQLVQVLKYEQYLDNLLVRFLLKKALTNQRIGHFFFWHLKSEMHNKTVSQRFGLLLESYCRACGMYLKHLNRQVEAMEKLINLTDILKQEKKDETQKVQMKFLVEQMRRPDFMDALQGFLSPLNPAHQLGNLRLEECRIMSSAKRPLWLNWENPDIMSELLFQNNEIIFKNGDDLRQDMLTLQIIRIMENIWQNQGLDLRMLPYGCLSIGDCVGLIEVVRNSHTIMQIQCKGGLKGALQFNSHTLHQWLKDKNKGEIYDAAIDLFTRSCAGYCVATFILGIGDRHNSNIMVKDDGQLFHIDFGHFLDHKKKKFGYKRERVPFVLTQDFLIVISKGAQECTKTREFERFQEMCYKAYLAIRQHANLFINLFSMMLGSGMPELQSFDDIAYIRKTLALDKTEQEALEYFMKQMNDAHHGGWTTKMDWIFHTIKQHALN
Sequence of PI3Kα (p110α/p85a) (P27986 whole entry partner, looked up): as the sequence (P27986 whole entry partner, looked up) above

`CC(C)n1c(=O)n(C)c2nnc3cc(F)c(-c4ccc(OCCCN5CCCCC5)nc4)cc3c21` [Example 1, 7-fluoro-1-isopropyl-3-methyl-8-(6-(3-(piperidin-1-yl)propoxy)pyridin-3-yl)-1H-imidazo[4,5-c]cinnolin-2(3H)-one]: the IC50 was greater than 10 µM in test [1]; greater than 10 µM in test [2]; greater than 10 µM in test [3]; 1.5 nM in test [4]; greater than 10 µM in test [5]; greater than 10 µM in test [6]. The IC50 is 1.9 nM in test [7] and greater than 10 µM in test [8].
Take `CC(C)n1c(=O)n(C)c2nnc3cc(F)c(-c4ccc(OCCCN(C)C)nc4)cc3c21` [Example 2, 8-(6-(3-(dimethylamino)propoxy)pyridin-3-yl)-7-fluoro-1-isopropyl-3-methyl-1H-imidazo[4,5-c]cinnolin-2(3H)-one]: the IC50 in test [1] is greater than 10 µM; in test [2], greater than 10 µM; in test [3] it was greater than 10 µM; in test [4] it was 270 nM; in test [5] it was greater than 10 µM; in test [6], greater than 10 µM. Moreover, the values for the IC50 in test [7] and in test [8] were 4.3 nM and greater than 10 µM, respectively.
As for `CC(C)n1c(=O)n(C)c2nnc3cc(F)c(-c4ccc(N5CCC(N(C)C)CC5)nc4)cc3c21` [Example 4, 8-(6-(4-(dimethylamino)piperidin-1-yl)pyridin-3-yl)-7-fluoro-1-isopropyl-3-methyl-1H-imidazo[4,5-c]cinnolin-2(3H)-one], the IC50 is greater than 10 µM in test [1]; greater than 10 µM in test [2]; greater than 10 µM in test [3]; greater than 10 µM in test [5]; greater than 10 µM in test [6]; 10 nM in test [7]. Moreover, the IC50 in test [8] was greater than 10 µM.
Take `CC(C)n1c(=O)n(C)c2nnc3cc(F)c(-c4ccc(N5CCC(CN(C)C)C5)nc4)cc3c21` (stereo not shown) [Example 5, 8-(6-(3-((dimethylamino)methyl)pyrrolidin-1-yl)pyridin-3-yl)-7-fluoro-1-isopropyl-3-methyl-1H-imidazo[4,5-c]cinnolin-2(3H)-one]: the 50% inhibitory concentration (IC50) is greater than 10 µM in test [1]; greater than 10 µM in test [2]; greater than 10 µM in test [3]; greater than 10 µM in test [5]; greater than 10 µM in test [6]; 65 nM in test [7]. The compound also yielded an IC50 in test [8] greater than 10 µM.
Take `CC(C)n1c(=O)n(C)c2nnc3cc(F)c(-c4ccc(COCCN5CCCC5)nc4)cc3c21` [Example 8, 7-fluoro-1-isopropyl-3-methyl-8-(6-((2-(pyrrolidin-1-yl)ethoxy)methyl)pyridin-3-yl)-1H-imidazo[4,5-c]cinnolin-2(3H)-one]: the IC50 in test [1] was greater than 10 µM; in test [2], greater than 10 µM; in test [3] it was greater than 10 µM; in test [5] it was greater than 10 µM; in test [6], greater than 10 µM; in test [7], 51 nM. In test [8], the IC50 was greater than 10 µM.
With `CC(C)n1c(=O)n(C)c2nnc3cc(F)c(-c4ccc(COCCN5CC[C@@H](F)C5)nc4)cc3c21` [Example 9, (R)-7-fluoro-8-(6-((2-(3-fluoropyrrolidin-1-yl)ethoxy)methyl)pyridin-3-yl)-1-isopropyl-3-methyl-1H-imidazo[4,5-c]cinnolin-2(3H)-one], the IC50 in test [1] is greater than 10 µM; in test [2], greater than 10 µM; in test [3] it was greater than 10 µM; in test [5] it was greater than 10 µM; in test [6], greater than 10 µM; in test [7], 35 nM. The compound further registered an IC50 in test [8] greater than 10 µM.
Turning to `CC(C)n1c(=O)n(C)c2nnc3cc(F)c(-c4ccc(COCCN5CCC(F)CC5)nc4)cc3c21` [Example 10, 7-fluoro-8-(6-((2-(4-fluoropiperidin-1-yl)ethoxy)methyl)pyridin-3-yl)-1-isopropyl-3-methyl-1H-imidazo[4,5-c]cinnolin-2(3H)-one], the IC50 in test [1], in test [2], in test [3], in test [5], in test [6] and in test [8] was greater than 10 µM in each case.
Take `CC(C)n1c(=O)n(C)c2nnc3cc(F)c(-c4ccc(C(=O)NCCN(C)C)nc4)cc3c21` [Example 12, N-(2-(dimethylamino)ethyl)-5-(7-fluoro-1-isopropyl-3-methyl-2-oxo-2,3-dihydro-1H-imidazo[4,5-c]cinnolin-8-yl)picolinamide]: the IC50 was greater than 10 µM in test [1]; greater than 10 µM in test [2]; greater than 10 µM in test [3]; greater than 10 µM in test [5]; greater than 10 µM in test [6]; 363 nM in test [7]. Moreover, in test [8], the IC50 was greater than 10 µM.
Take `CC(C)n1c(=O)n(C)c2nnc3cc(F)c(-c4ccc(OCCCN(C)C)nc4F)cc3c21` [Example 17, 8-(6-(3-(dimethylamino)propoxy)-2-fluoropyridin-3-yl)-7-fluoro-1-isopropyl-3-methyl-1,3-dihydro-2H-imidazo[4,5-c]cinnolin-2-one]: 7 nM corresponded to half-maximal inhibition in test [7] (IC50).
In the case of `Cn1c(=O)n(C2CCOCC2)c2c3cc(-c4ccc(OCCCN5CCCCC5)nc4)c(F)cc3nnc21` [Example 18, 7-fluoro-3-methyl-8-(6-(3-(piperidin-1-yl)propoxy)pyridin-3-yl)-1-(tetrahydro-2H-pyran-4-yl)-1H-imidazo[4,5-c]cinnolin-2(3H)-one], in test [7], the IC50 is 4.8 nM. This IC50 and that of the compound before are within 1.5-fold of each other.
Same read-out and setting: in the case of `CN(C)CCCOc1ccc(-c2cc3c(cc2F)nnc2c3n(C3CCOCC3)c(=O)n2C)cn1` [Example 19, 8-(6-(3-(dimethylamino)propoxy)pyridin-3-yl)-7-fluoro-3-methyl-1-(tetrahydro-2H-pyran-4-yl)-1H-imidazo[4,5-c]cinnolin-2(3H)-one] it was 13 nM; in that of `Cn1c(=O)n(C2CCOCC2)c2c3cc(-c4ccc(OCCCN5CCCC5)nc4)c(F)cc3nnc21` [Example 20, 7-fluoro-3-methyl-8-(6-(3-(pyrrolidin-1-yl)propoxy)pyridin-3-yl)-1-(tetrahydro-2H-pyran-4-yl)-1H-imidazo[4,5-c]cinnolin-2(3H)-one], 6 nM; in that of `CN(C)CC1CCN(c2ccc(-c3cc4c(cc3F)nnc3c4n(C4CCOCC4)c(=O)n3C)cn2)C1` (stereo not shown) [Example 21, 8-(6-(3-((dimethylamino)methyl)pyrrolidin-1-yl)pyridin-3-yl)-7-fluoro-3-methyl-1-(tetrahydro-2H-pyran-4-yl)-1H-imidazo[4,5-c]cinnolin-2(3H)-one], 97 nM.
On the same count and under the same terms, in the case of `Cn1c(=O)n(C2CCOCC2)c2c3cc(-c4ccc(OCCCN5CCC(F)CC5)nc4)c(F)cc3nnc21` [Example 24, 7-fluoro-8-(6-(3-(4-fluoropiperidin-1-yl)propoxy)pyridin-3-yl)-3-methyl-1-(tetrahydro-2H-pyran-4-yl)-1H-imidazo[4,5-c]cinnolin-2(3H)-one] it was greater than 1000 nM.
Same read-out and setting: in the case of `Cn1c(=O)n(C2CCOCC2)c2c3cc(-c4ccc(OCCCN5CC[C@@H](F)C5)nc4)c(F)cc3nnc21` [Example 25, (R)-7-fluoro-8-(6-(3-(3-fluoropyrrolidin-1-yl)propoxy)pyridin-3-yl)-3-methyl-1-(tetrahydro-2H-pyran-4-yl)-1H-imidazo[4,5-c]cinnolin-2(3H)-one] it was greater than 1000 nM.

Usually IC50 stands for the concentration that gives 50% inhibition. High values mean weaker potency in that assay, low ones greater potency in that assay.
